Where a name gives a salt, the structure may show the parent alone.
Molecular target: HDAC6 (Homo sapiens (Human), UniProt Q9UBN7)
Experiment: HDAC6 in vitro enzymatic assay (fluorescence)
Assay type: biochemical
Details: Table 3; read-out: IC50 (nM) for inhibition of HDAC6
Method: Biological Tests Method for Measurement of Enzymatic Activity of HDACs Materials & Methods
All Examples were tested in HDAC1,2,3,6 and 8 in vitro enzymatic assays. The assay principle is well known (Hauser et al. 2009, Bradner et al. 2010) and all necessary reagents like enzymes, substrates, developer and reference compounds are commercially available (see e.g. BPS Biosciences http://www.bpsbioscience.com/). Stock solutions (10 mM in DMSO) of compounds were serially diluted 1:3 in 11 concentrations with a top concentration of 200 μM for HDAC1,2,3 and 2 μM for HDAC6 and HDAC8. The enzymatic reactions were conducted in a mixture containing assay buffer, bovine serum albumin, HDAC substrate, and a test compound. After enzymatic reaction, developer was added and after an additional incubation time, fluorescence intensity was measured at an excitation wavelength of 360 nm and an emission wavelength of 460 nm. All experiments were performed in duplicate.

Chain of HDAC6 (Q9UBN7 whole entry): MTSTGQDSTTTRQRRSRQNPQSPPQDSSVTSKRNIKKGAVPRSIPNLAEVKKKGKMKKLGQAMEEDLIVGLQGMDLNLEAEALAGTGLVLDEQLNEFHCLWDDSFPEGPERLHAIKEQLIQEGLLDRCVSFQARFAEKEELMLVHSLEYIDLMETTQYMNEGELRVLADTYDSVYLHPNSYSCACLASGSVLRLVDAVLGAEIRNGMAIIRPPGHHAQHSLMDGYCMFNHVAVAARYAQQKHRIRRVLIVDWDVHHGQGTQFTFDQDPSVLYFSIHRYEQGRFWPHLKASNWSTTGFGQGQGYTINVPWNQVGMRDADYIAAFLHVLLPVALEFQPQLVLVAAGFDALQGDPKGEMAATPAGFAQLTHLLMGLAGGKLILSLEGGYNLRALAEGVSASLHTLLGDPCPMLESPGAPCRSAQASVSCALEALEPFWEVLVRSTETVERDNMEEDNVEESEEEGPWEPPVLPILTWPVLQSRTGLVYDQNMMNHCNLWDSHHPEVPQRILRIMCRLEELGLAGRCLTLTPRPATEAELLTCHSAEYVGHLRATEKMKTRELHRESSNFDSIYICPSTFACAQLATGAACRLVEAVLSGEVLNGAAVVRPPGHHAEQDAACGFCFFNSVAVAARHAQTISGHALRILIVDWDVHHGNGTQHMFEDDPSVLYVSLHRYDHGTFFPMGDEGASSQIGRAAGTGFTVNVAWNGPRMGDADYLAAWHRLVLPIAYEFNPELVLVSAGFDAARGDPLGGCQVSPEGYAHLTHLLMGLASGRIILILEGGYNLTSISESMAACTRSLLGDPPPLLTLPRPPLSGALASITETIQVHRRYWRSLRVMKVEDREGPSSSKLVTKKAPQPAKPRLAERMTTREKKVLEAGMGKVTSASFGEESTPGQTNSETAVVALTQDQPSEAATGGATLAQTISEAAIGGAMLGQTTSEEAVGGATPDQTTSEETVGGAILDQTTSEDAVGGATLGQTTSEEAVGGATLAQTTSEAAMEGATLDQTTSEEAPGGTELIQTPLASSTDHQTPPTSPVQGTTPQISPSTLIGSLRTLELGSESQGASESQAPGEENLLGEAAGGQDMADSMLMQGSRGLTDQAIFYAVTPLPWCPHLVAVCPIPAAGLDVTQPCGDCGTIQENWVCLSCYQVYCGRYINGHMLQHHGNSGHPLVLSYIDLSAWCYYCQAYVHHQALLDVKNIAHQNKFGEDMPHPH

Q: For `CC(C)c1ccc(-c2nc3ncc(C(=O)NO)cc3[nH]2)cc1` [Example 57, N-Hydroxy-2-[4-(1-methylethyl)phenyl]-1H-imidzo[4,5-b]pyridine-6-carboxamide], which IC50 is on record?
A: Its IC50 is 11 nM.

Q: How did the IC50 turn out when `COc1ccc(F)cc1-c1cc2cc(C(=O)NO)ccc2s1` [Example 106, 2-(5-fluoro-2-methoxyphenyl)-N-hydroxy-1-benzothiophene-5-carboxyamide] was run?
A: Its IC50 is 86 nM.

Q: Which IC50 does the source give for `CC(C)(C)c1ccc(-c2nc3ccc(C(=O)NO)cc3o2)cc1` [Example 51, 2-(4-tert-butylphenyl)-N-hydroxy-1,3-benzoxazole-6-carboxamide] here?
A: Its IC50 is 22 nM.

Q: For `O=C(NO)c1ccc2nc(NCc3ccccc3)[nH]c2c1` [Example 127, 2-(benzylamino)-N-hydroxy-1H-benzo[d]imidazole-6-carboxamide], which IC50 is on record?
A: The IC50 was 60 nM.

Q: `O=C(NO)c1ccc2oc(-c3ccc4c(c3)OCCO4)nc2c1` [Example 219, 2-(2,3-Dihydro-1,4-benzodioxin-6-yl)-N-hydroxy-1,3-benzoxazole-5-carboxamide] was tested. Which IC50 did it give?
A: Its IC50 is 44 nM.

Q: For `Cn1c(N(Cc2ccccc2)c2ccccc2)nc2cc(C(=O)NO)ccc21` [Example 141, 2-(benzyl(phenyl)amino)-N-hydroxy-1-methyl-1H-benzo[d]imidazole-5-carboxamide], which IC50 is on record?
A: The IC50 was 22 nM.

Q: Which IC50 does the source give for `CC(C)c1ccc(-c2cc3cc(C(=O)NO)cnc3[nH]2)cc1` [Example 84, N-Hydroxy-2-[4-(1-methylethyl)phenyl]-1H-pyrrolo[2,3-b]pyridine-5-carboxamide] here?
A: Its IC50 is 19 nM.

Q: For `CN(Cc1ccccc1)c1nc2cc(C(=O)NO)ccc2o1` [Example 44, 2-[benzyl(methyl)amino]-N-hydroxy-1,3-benzoxazole-5-carboxamide], which IC50 is on record?
A: The IC50 was 63 nM.

Q: Which IC50 does the source give for `Cc1ncccc1-c1nc2cc(C(=O)NO)ccc2o1` [Example 40, N-Hydroxy-2-(2-methylpyridin-3-yl)-1,3-benzoxazole-5-carboxamide trifluoroacetate] here?
A: Its IC50 is 54 nM.

Q: How did the IC50 turn out when `O=C(NO)c1ccc2oc(-c3ccccc3)nc2c1` [Example 7, N-hydroxy-2-phenyl-1,3-benzoxazole-5-carboxamide] was run?
A: The IC50 was 15 nM.

Q: With `O=C(NO)c1ccc2nc(NCc3ccc(-c4ccccc4)cc3)[nH]c2c1` [Example 125, 2-(([1,1′-biphenyl]-4-ylmethyl)amino)-N-hydroxy-1H-benzo[d]imidazole-6-carboxamide] as the compound, how does the IC50 read?
A: Its IC50 is 7 nM.

Q: With `CC(C)c1ccc(-c2cc3cc(C(=O)NO)cnc3s2)cc1` [Example 87, N-Hydroxy-2-[4-(1-methylethyl)phenyl]thieno[2,3-b]pyridine-5-carboxamide] as the compound, how does the IC50 read?
A: Its IC50 is 42 nM.

Q: How did the IC50 turn out when `O=C(NO)c1ccc2oc(-c3ccc(-c4cccnc4)cc3F)nc2c1` [Example 175, 2-(2-fluoro-4-pyridin-3-ylphenyl)-N-hydroxy-1,3-benzoxazole-5-carboxamide] was run?
A: Its IC50 is 34 nM.

Q: How did the IC50 turn out when `COc1cccc2cc(-c3nc4cc(C(=O)NO)ccc4s3)oc12` [Example 81, N-Hydroxy-2-(7-methoxy-1-benzofuran-2-yl)-1,3-benzothiazole-5-carboxamide] was run?
A: Its IC50 is 33 nM.

Q: Which IC50 does the source give for `O=C(NO)c1ccc2oc(-c3ccc(F)c(F)c3)nc2c1` [Example 5, 2-(3,4-difluorophenyl)-N-hydroxy-1,3-benzoxazole-5-carboxamide] here?
A: The IC50 was 36 nM.

Q: How did the IC50 turn out when `CN(Cc1ccccc1)c1nc2cc(C(=O)NO)ccc2n1C` [Example 139, 2-(benzyl(methyl)amino)-N-hydroxy-1-methyl-1H-benzo[d]imidazole-5-carboxamide] was run?
A: The IC50 was 30 nM.

Q: For `CC(C)c1ccc(-c2cc3cc(C(=O)NO)ccc3[nH]2)cc1` [Example 60, N-Hydroxy-2-[4-(1-methylethyl)phenyl]-1H-indole-5-carboxamide], which IC50 is on record?
A: The IC50 was 62 nM.

Q: With `COc1ccc(-c2cc3cc(C(=O)NO)ccc3s2)cc1` [Example 93, N-hydroxy-2-(4-methoxyphenyl)-1-benzothiophene-5-carboxamide] as the compound, how does the IC50 read?
A: Its IC50 is 9 nM.

Q: With `O=C(NO)c1ccc2cc(-c3ccccc3)oc2c1` [Example 282, N-Hydroxy-2-phenyl-1-benzofuran-6-carboxamide] as the compound, how does the IC50 read?
A: Its IC50 is 9 nM.

Q: Which IC50 does the source give for `COc1ccc(CN(CCN(C)C)c2nc3cc(C(=O)NO)ccc3o2)cc1OC` [Example 244, 2-{(3,4-dimethoxybenzyl)[2-(dimethylamino)ethyl]amino}-N-hydroxy-1,3-benzoxazole-5-carboxamide trifluoroacetate] here?
A: Its IC50 is 63 nM.

Q: How did the IC50 turn out when `O=C(NO)c1ccc2cc(-c3ccoc3)sc2c1` [Example 149, 2-furan-3-yl-N-hydroxy-1-benzothiophene-6-carboxamide] was run?
A: The IC50 was 49 nM.

Q: Which IC50 does the source give for `O=C(NO)c1ccc2oc(-c3ccccc3CO)cc2c1` [Example 281, N-hydroxy-2-[2-(hydroxymethyl)phenyl]-1-benzofuran-5-carboxamide] here?
A: The IC50 was 92 nM.

Q: For `O=C(NO)c1ccc2oc(-c3ccc(-c4cccnc4)cc3)nc2c1` [Example 23, N-hydroxy-2-(4-pyridin-3-ylphenyl)-1,3-benzoxazole-5-carboxamide], which IC50 is on record?
A: The IC50 was 11 nM.

Q: Which IC50 does the source give for `CS(=O)(=O)Nc1ccc(-c2cc3cc(C(=O)NO)ccc3s2)cc1` [Example 109, N-hydroxy-2-{4-[(methylsulfonyl)amino]phenyl}-1-benzothiophene-5-carboxamide] here?
A: The IC50 was 86 nM.

Q: With `CCN(CC)c1ccc(-c2nc3cc(C(=O)NO)ccc3o2)cc1` [Example 33, 2-[4-(Diethylamino)phenyl]-N-hydroxy-1,3-benzoxazole-5-carboxamide trifluoroacetate] as the compound, how does the IC50 read?
A: Its IC50 is 22 nM.

Q: For `O=C(NO)c1ccc2oc(NC3(c4cccc(F)c4)CCCCC3)nc2c1` [Example 262, 2-{[1-(3-fluorophenyl)cyclohexyl]amino}-N-hydroxy-1,3-benzoxazole-5-carboxamide], which IC50 is on record?
A: Its IC50 is 9 nM.

Q: Which IC50 does the source give for `C[C@@H]1CN(Cc2cccc(-c3nc4cc(C(=O)NO)ccc4o3)c2)C[C@H](C)O1` [Example 202, 2-(3-{[(cis)-2,6-dimethylmorpholin-4-yl]methyl}phenyl)-N-hydroxy-1,3-benzoxazole-5-carboxamide trifluoroacetate] here?
A: Its IC50 is 53 nM.

Q: With `O=C(NO)c1ccc2cc(CO)oc2c1` [Example 119, N-hydroxy-2-(hydroxymethyl)-1-benzofuran-6-carboxamide] as the compound, how does the IC50 read?
A: The IC50 was 74 nM.

Q: `O=C(NO)c1ccc2oc(-c3ccc4c(c3)OCO4)nc2c1` [Example 8, 2-(1,3-benzodioxo1-5-yl)-N-hydroxy-1,3-benzoxazole-5-carboxamide] was tested. Which IC50 did it give?
A: The IC50 was 14 nM.

Q: Which IC50 does the source give for `O=C(NO)c1ccc2oc(-c3ccc(CN4CCN(c5ccncc5)CC4)cc3)nc2c1` [Example 209, N-hydroxy-2-{4-[(4-pyridin-4-ylpiperazin-1-yl)methyl]phenyl}-1,3-benzoxazole-5-carboxamide trifluoroacetate] here?
A: The IC50 was 35 nM.

Q: Which IC50 does the source give for `N#Cc1ccc(-c2nc3cc(C(=O)NO)ccc3o2)cc1` [Example 36, 2-(4-Cyanophenyl)-N-hydroxy-1,3-benzoxazole-5-carboxamide] here?
A: The IC50 was 56 nM.

Q: With `O=C(NO)c1ccc2nc(N3CCN(c4ccc(F)cc4)CC3)[nH]c2c1` [Example 126, 2-(4-(4-fluorophenyl)piperazin-1-yl)-N-hydroxy-1H-benzo[d]imidazole-6-carboxamide] as the compound, how does the IC50 read?
A: The IC50 was 85 nM.

Q: Which IC50 does the source give for `O=C(NO)c1ccc2sc(-c3cncc(Br)c3)nc2c1` [Example 80, 2-(5-Bromopyridin-3-yl)-N-hydroxy-1,3-benzothiazole-5-carboxamide] here?
A: Its IC50 is 30 nM.

Q: How did the IC50 turn out when `O=C(NO)c1ccc2oc(-c3ccc(-c4ccncc4)cc3)nc2c1` [Example 22, N-hydroxy-2-(4-pyridin-4-ylphenyl)-1,3-benzoxazole-5-carboxamide] was run?
A: Its IC50 is 13 nM.

Q: For `Cc1[nH]c2ccccc2c1-c1nc2cc(C(=O)NO)ccc2o1` [Example 228, N-hydroxy-2-(2-methyl-1H-indol-3-yl)-1,3-benzoxazole-5-carboxamide], which IC50 is on record?
A: The IC50 was 27 nM.

Q: With `O=C(NO)c1ccc2oc(Nc3cccc(-c4ccccc4)c3)nc2c1` [Example 230, 2-(biphenyl-3-ylamino)-N-hydroxy-1,3-benzoxazole-5-carboxamide] as the compound, how does the IC50 read?
A: The IC50 was 7 nM.

Q: Which IC50 does the source give for `Cn1c(Nc2cccc(-c3ccccc3)c2)nc2cc(C(=O)NO)ccc21` [Example 144, 2-([1,1′-biphenyl]-3-ylamino)-N-hydroxy-1-methyl-1H-benzo[d]imidazole-5-carboxamide] here?
A: Its IC50 is 7 nM.

Q: With `Cn1cc(-c2cc3cc(C(=O)NO)ccc3s2)cn1` [Example 99, N-hydroxy-2-(1-methyl-1H-pyrazol-4-yl)-1-benzothiophene-5-carboxamide] as the compound, how does the IC50 read?
A: The IC50 was 16 nM.

Q: With `O=C(NO)c1ccc2sc(Cc3ccc(F)cc3)nc2c1` [Example 79, 2-(4-fluorobenzyl)-N-hydroxy-1,3-benzothiazole-5-carboxamide] as the compound, how does the IC50 read?
A: The IC50 was 7 nM.

Q: With `COCCN(C)Cc1cccc(-c2nc3cc(C(=O)NO)ccc3o2)c1` [Example 205, N-hydroxy-2-(3-{[(2-methoxy-ethyl)(methyl)amino]methyl}phenyl)-1,3-benzoxazole-5-carboxamide trifluoroacetate] as the compound, how does the IC50 read?
A: Its IC50 is 64 nM.

Q: Which IC50 does the source give for `O=C(NO)c1ccc2sc(CN3CCCCC3)nc2c1` [Example 273, N-Hydroxy-2-(piperidin-1-ylmethyl)-1,3-benzothiazole-5-carboxamide] here?
A: Its IC50 is 16 nM.

Q: Which IC50 does the source give for `COc1cc(-c2ccccc2F)ccc1-c1nc2cc(C(=O)NO)ccc2o1` [Example 196, 2-(2′-fluoro-3-methoxybiphenyl-4-yl)-N-hydroxy-1,3-benzoxazole-5-carboxamide] here?
A: Its IC50 is 20 nM.

Q: Which IC50 does the source give for `O=C(NO)c1ccc2nc(-c3ccc(F)cc3)oc2c1` [Example 50, 2-(4-Fluorophenyl)-N-hydroxy-1,3-benzoxazole-6-carboxamide] here?
A: The IC50 was 34 nM.

Q: For `CC(C)c1ccc(-c2cc3ncc(C(=O)NO)cc3s2)cc1` [Example 110, N-Hydroxy-2-[4-(1-methylethyl)phenyl]thieno[3,2-b]pyridine-6-carboxamide], which IC50 is on record?
A: Its IC50 is 50 nM.

Q: `COc1ccc(-c2cc3cc(C(=O)NO)ccc3o2)cn1` [Example 278, N-hydroxy-2-(6-methoxypyridin-3-yl)-1-benzofuran-5-carboxamide] was tested. Which IC50 did it give?
A: The IC50 was 96 nM.

Reference: US10654814B2, “Bicyclic hydroxamic acids useful as inhibitors of mammalian histone deacetylase activity” (KANCERA AB, priority 2015, dated 2020)
